{"source": "patent US11965894B2", "about": "“Method of diagnosis of drug induced liver injury” (BIOPREDICTIVE, priority 2017, dated 2024)", "key": {"[1]": {"conditions": "in vivo", "method": "Measures of biochemical markers were performed accordingly to the art, and analyses of ActiTest® and FibroTest® were made as described in the art and in WO 2002/016949.\nComparisons between medians (95% confidence interval [CI]) used the Mann-Whitney test with Bonferroni correction, and the Tukey-Kramer multiple comparison procedure for analyses of variance of the three repeated measures. Correlation between test values was estimated using the Pearson coefficient, expressed with a 95% CI; according to the number of comparisons, only a P value <0.01 was considered significant. NCSS-9 software was used."}, "[2]": {"test": "Serum miR-122 by LNA-based relative quantitative PCR in DILI cases", "assay_type": "in vivo, human", "method": "Total RNA, including miRNA was extracted from 200 μl of serum, using a commercial column-based system (Exiqon, Denmark) following the manufacturer's instructions. RNA synthetic control templates (Exiqon, Denmark) were introduced to provide controls for the quality of the RNA isolation. Serum levels of miR-122 and nine endogenous miRNAs as potential candidates for reference miRNAs were assayed using the Locked Nucleic Acid (LNA™)-based miRNA relative quantitative PCR with a SYBR® Green detection. cDNA synthesis and real time PCR were performed using the miRCURY LNA™ Universal RT cDNA Synthesis Kit (Exiqon, Denmark) and miRCURY LNA™ Universal RT microRNA PCR system (Exiqon), respectively. Two additional RNA spike-ins were also introduced to provide controls for the cDNA synthesis reaction and the PCR. Quantitative PCR was done on the LightCycler® 480 (Roche Applied Science) according to the manufacturer's instructions. The amplification curves were analyzed using the Roche LC software, both for the determination of cycle threshold (Ct) and for melting curve analysis. Ct values were then processed using the analysis software GenEx® (MultiD Analysis AB). […] Ct values for miR-122 were normalized with Ct value of miR-23a-3p. Levels of serum miR-122 were expressed in relative quantities calculated by the equation 2^−ΔCt."}, "[3]": {"test": "FibroTest and ActiTest scores in DILI cases", "assay_type": "in vivo, human", "conditions": "for FibroTest: single followed DILI case", "method": "The Fibrotest® combines five markers: alpha2-macroglobulin, haptoglobin, apolipoprotein A2, total bilirubin and gamma-glutamyl transpeptidase (GGT), and adjusts with sex and age. […] It is performed in vitro on a biological sample (blood or serum) that has been harvested from a patient.\nThe ActiTest is calculated using an original combination of six highly concentrated biochemical markers, which are easy to assess. The ActiTest offers a non invasive alternative for measuring necro inflammatory activity in patients with chronic hepatitis C or B. The ActiTest combines alpha2-macroglobulin, haptoglobin, apolipoprotein A1, total bilirubin, GGT, and ALT, parameters adjusted for patient's age and gender."}, "[4]": {"conditions": "healthy volunteers receiving the drug, ref [13]; cited from earlier work"}, "[5]": {"conditions": "DILI cases attributed to the drug, at inclusion"}}}
{"smiles": "CN(Cc1cnc2nc(N)nc(N)c2n1)c1ccc(C(=O)N[C@@H](CCC(=O)O)C(=O)O)cc1", "note": "[methotrexate]", "values": [{"measurement": "GGT dynamics compared with other drugs", "setting": "[1]", "result": "no decrease"}, {"measurement": "miR-122 median", "setting": "[2]; serum, DILI cases attributed to the drug, at inclusion, relative quantities normalized with miR-23a-3p", "result": 7.54}, {"measurement": "FibroTest", "setting": "[3]; 877 days later", "result": 0.52}, {"measurement": "FibroTest", "setting": "[3]; at 8-12 weeks", "result": 0.51}]}
{"smiles": "CC(=O)Nc1ccc(O)cc1", "note": "[APAP, acetaminophen]", "values": [{"measurement": "miR-122 compared with MTX cases", "setting": "[2]; DILI cases, at baseline", "result": "significantly lower"}, {"measurement": "miR-122 (lowest)", "setting": "[2]; single DILI case with severe malnutrition", "result": "−0.8"}, {"measurement": "ActiTest median", "setting": "[3]; [5]", "result": 0.99}, {"measurement": "FibroTest", "setting": "[3]; at 8-12 weeks", "result": 0.53}, {"measurement": "FibroTest", "setting": "[3]; one month later", "result": 0.47}, {"measurement": "ApoA1 regulation in ALT responders compared with ALT non-responders", "setting": "[4]", "result": "three-fold down-regulation"}]}
{"smiles": "CCN1CCN(C(=O)N[C@@H](C(=O)N[C@@H]2C(=O)N3[C@@H]2SC(C)(C)[C@@H]3C(=O)O)c2ccccc2)C(=O)C1=O", "note": "[piperacillin, piperacillin-tazobactam]", "values": [{"measurement": "GGT median", "setting": "[1]", "result": 678, "unit": "IU/L"}]}
{"smiles": "CCOC(=O)Nc1ccc(NCc2ccc(F)cc2)nc1N", "note": "[flupirtine]", "values": [{"measurement": "ApoA1 compared with normal ranges observed with methotrexate and others", "setting": "[1]", "result": "dramatic decrease"}, {"measurement": "ApoA1 evolution compared with HAPTO", "setting": "[1]", "result": "much quicker normalization"}, {"measurement": "ApoA1 median", "setting": "[1]", "result": 0.27, "unit": "g/L"}, {"measurement": "BILI compared with normal ranges observed with methotrexate and others", "setting": "[1]", "result": "dramatic increase"}, {"measurement": "BILI median", "setting": "[1]", "result": 335, "unit": "µmol/L"}, {"measurement": "HAPTO compared with normal ranges observed with methotrexate and others", "setting": "[1]", "result": "dramatic decrease"}, {"measurement": "HAPTO median", "setting": "[1]", "result": 0.10, "unit": "g/L"}, {"measurement": "FibroTest median", "setting": "[3]; [5]", "result": 0.99}]}
